Experimental data: patent US6455522B1, “Cyclic sulfonamide derivatives as metalloproteinase inhibitors” (Bristol-Myers Squibb Pharma Company, priority 1998, dated 2002)

Test system: cartilage degradation
Test: Acute Cartilage Degradation Rat Model
Assay type: in vivo
Settings: rats, after compound administration
From the text: A novel in vivo model of acute cartilage degradation in rats has been characterized as a method to determine the proteoglycan content in the synovial fluid after the induction of cartilage degradation.

COc1ccc2c(c1)c(CC(=O)O)c(C)n2C(=O)c1ccc(Cl)cc1 [Indomethacin]
ability to inhibit the demonstration of cartilage degradation, as measured by increased proteoglycan content in the synovial fluid: inactive
